From patent publication US5670500A (priority 1995, dated 1997)

How the values were obtained:
[1] = in vivo; cited from earlier work
topoisomerase II = details: cited from earlier work
topoisomerase I = biological target: T1, topoisomerase I (Homo sapiens, UniProt P11387); details: cited from earlier work
T1 sequence (P11387 1-765): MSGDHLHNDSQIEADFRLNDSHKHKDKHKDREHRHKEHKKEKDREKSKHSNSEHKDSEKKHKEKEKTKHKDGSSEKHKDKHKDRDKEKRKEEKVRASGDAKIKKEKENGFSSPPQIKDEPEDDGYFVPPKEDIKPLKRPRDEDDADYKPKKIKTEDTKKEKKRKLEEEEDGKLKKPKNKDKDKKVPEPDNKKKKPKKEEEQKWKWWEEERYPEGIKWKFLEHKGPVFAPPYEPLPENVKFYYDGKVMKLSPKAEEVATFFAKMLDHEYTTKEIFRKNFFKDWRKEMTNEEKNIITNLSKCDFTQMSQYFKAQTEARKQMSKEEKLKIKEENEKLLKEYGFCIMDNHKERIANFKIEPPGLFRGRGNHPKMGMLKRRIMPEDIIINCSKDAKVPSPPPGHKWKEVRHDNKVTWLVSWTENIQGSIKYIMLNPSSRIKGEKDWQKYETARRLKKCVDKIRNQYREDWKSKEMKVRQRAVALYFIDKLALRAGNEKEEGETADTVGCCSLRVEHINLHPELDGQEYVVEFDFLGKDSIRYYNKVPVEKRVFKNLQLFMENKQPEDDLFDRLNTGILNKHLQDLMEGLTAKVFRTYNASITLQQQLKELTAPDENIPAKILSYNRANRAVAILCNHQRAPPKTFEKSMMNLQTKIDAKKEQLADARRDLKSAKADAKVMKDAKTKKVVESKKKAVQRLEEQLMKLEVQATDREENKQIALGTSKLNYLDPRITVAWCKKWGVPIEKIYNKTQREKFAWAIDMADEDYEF

Colon 26 = assay: Efficacy in mouse tumor models: Colon Carcinoma 26; format: in vivo; details: Colon 26 mouse model
Protocol: (§1) The efficacy of the compounds of the present invention was also tested in vivo using three well-known mouse tumor models: L1210, Lewis Lung, and Colon Carcinoma 26.

[2] = tested on: multidrug resistant (CH^R C5) Chinese Hamster ovary cells; assay: CHO Microtiter Cytotoxicity Assay, multidrug resistant; format: cell-based; details: Cricetulus griseus, CHRC5, 72 h, 3 days, XTT
Protocol: (§2) CHO Microtiter Cytotoxicity Assay
(§3) Chinese Hamster ovary cells are grown in Alpha MEM Medium with L-glutamine and nucleosides and containing 10% fetal bovine serum and 100 units per mL penicillin-streptomycin in 75 cm^2 canted neck tissue culture flasks. They are harvested from these flasks using 0.5% trypsin. Microtiter plates (96-well, sterile, flat bottom) (Corning 25860) are seeded with 1.6×10^3 wild-type (AUX-B1) Chinese Hamster ovary cells per well or 2×10^3 multidrug resistant (CH^R C5) Chinese Hamster ovary cells per well. The plates are incubated at 37° C., 5% CO2 overnight to allow the cells to attach. The outside wells of each plate are not used, due to evaporation during the incubation time. They are filled with medium and used as blanks. The next day, the medium is aspirated from the wells and 180 μL of fresh medium is added to each well. Compounds are diluted from stock solution in DMSO into fresh medium to a 10X concentration containing 2% DMSO. Twenty μL of this is then added to the 180 μL of fresh meduim in the wells. The plates are then incubated for another 3 days at 37° C., 5% CO2. […] The plate is then read on a UV Max plate reader, using wells without cells .(i.e., containing only 200 μL of medium and 50 μL of XTT/PMS solution) as a background control.

L1210 = assay: Efficacy in mouse tumor models: L1210; format: in vivo; details: L1210 mouse model, dose 42 mg/kg ip
Protocol: as §1

[3] = tested on: wild-type (AUX-B1) Chinese Hamster ovary cells; assay: CHO Microtiter Cytotoxicity Assay, wild type; format: cell-based; details: Cricetulus griseus, AuxB1, 72 h, 3 days, XTT
Protocol: as §2, §3

Lewis Lung = assay: Efficacy in mouse tumor models: Lewis Lung; format: in vivo; details: Lewis Lung mouse model, dose 9 mg/kg ip
Protocol: as §1

[4] = tested on: solid tumor cancers, particularly ovarian cancer and non-small cell lung carcinoma; details: humans; cited from earlier work

Compound | toxicity [1] | IC50 [2] [nM] | IC50 [3] [nM] | % Inc. in Lifespan, Colon 26 (Colon 26; dose 20 mg/kg sc) [%] | further results
CC[C@@]1(O)C(=O)OCc2c1cc1n(c2=O)Cc2cc3ccccc3nc2-1 [Camptothecin] | unacceptable dose limiting toxicity, unpredictable toxicity |  |  |  | effect on topoisomerase II (topoisomerase II): no effect on topoisomerase II; inhibition of topoisomerase I (topoisomerase I): inhibit topoisomerase I; % Inc. in Lifespan, Colon 26 (Colon 26; dose 4 mg/kg ip): 50%
CC[C@@]1(O)C(=O)OCc2c1cc1n(c2=O)Cc2cc3c4c(ccc3nc2-1)OC(CN1CCOCC1)C4 (stereo partly drawn) [Formula III, (8S)-8-ethyl-1,2-dihydro-8-hydroxy-2(4-morpholinylmethyl)11H-furano [3,2-f]-pyrano[3',4':6,7]indolizino[1,2-b]quinoline-9,12(8H,14H)-dione] |  | 420 | 5.5 | 45 | % Inc. in Lifespan, L1210 (L1210): 350%
CC[C@@]1(O)C(=O)OCc2c1cc1n(c2=O)Cc2cc3c4c(ccc3nc2-1)OC(CN(C)C)C4 (stereo partly drawn) [Formula IV, (8S)-2-[(dimethylamino)methyl]-8-ethyl-1,2-dihydro-8-hydroxy-11H-furano[3,2-f]-pyrano [3',4':6,7]indolizino[1,2-b]quinoline-9,12(8H,14H)-dione] |  | 1000 | 18 | 32 | % Inc. in Lifespan, Lewis Lung (Lewis Lung): 67%
CC[C@@]1(O)C(=O)OCc2c1cc1n(c2=O)Cc2cc3c(CN(C)C)c(O)ccc3nc2-1 [Topotecan, 9-dimethylaminomethyl-10-hydroxycamptothecin, reference compound] |  |  |  | 45 | efficacy in clinical tests [4]: demonstrated efficacy against several solid tumor cancers, particularly ovarian cancer and non-small cell lung carcinoma
(S)-10-amino-4-ethyl-4-hydroxy-1H-pyrano[3',4':6,7]indolizino [1,2-b]quinoline-3,14(4H,12H)-dione [CPT-11] | adverse toxicity profile |  |  |  | 
